The source of these data is the supplement of paper PMC6206229.

Values after ≈ are worked out from the molar mass of the structure shown.

Experiment [1] deals with Staphylococcus aureus ATCC 29213 (MSSA). The experiment is described as follows: minimum inhibitory concentration; extreme values may be limits of the assay. The method in brief: (§1)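 The minimum inhibitory concentration was defined as the lowest concentration whose well remained blue rather than becoming pink. It was measured against methicillin-susceptible and methicillin-resistant Staphylococcus aureus by broth microdilution in 96-well plates according to CLSI guidance, with compounds at 0 to 100 µM incubated for 24 h at 37°C before 30 µl of 0.015% resazurin was added for 2–4 h. Each plate included positive controls.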

Experiment [2] relates to Staphylococcus aureus ATCC 700699 (MRSA). Described as above. In outline: as §1

With `CC(C)C(NC(=O)Cc1cccc2ccccc12)C(=O)Nc1cccc(C#N)c1` (stereo unspecified), the minimum inhibitory concentration in experiment [1] and in experiment [2] was > 50 µM throughout.

In the case of `Nc1ncc(-c2ccc(C(F)(F)F)nc2)cc1-c1ccc(C(F)(F)F)nc1`, the minimum inhibitory concentration in experiment [1] and in experiment [2] was > 50 µM throughout.

Turning to `CS(=O)(=O)c1cccc(-c2cnc3[nH]cc(-c4ccc(CCC(=O)O)cc4)c3c2)c1`, the minimum inhibitory concentration in experiment [1] and in experiment [2] was > 50 µM throughout.

As to `COc1ccc(CCN2CCC(NCc3cccc(N(C)C)c3)CC2)cc1`, the minimum inhibitory concentration in experiment [1] and in experiment [2] was > 50 µM each time.

Turning to `Clc1ccc(CCNc2cc(-c3ccccc3)nc3ncnn23)cc1`, the minimum inhibitory concentration in experiment [1] and in experiment [2] was > 50 µM throughout.

For the compound `CCOC(=O)c1cc(-c2csc(Nc3c(C)cc(C)cc3C)n2)on1`, the minimum inhibitory concentration in experiment [1] and in experiment [2] was > 50 µM throughout.

As to `Cc1ccc2oc(-c3cc(NC(=O)Cc4ccccc4)ccc3Cl)nc2c1`, the minimum inhibitory concentration in experiment [1] and in experiment [2] was > 50 µM in each case.

`CCc1ccc(C(NCc2nc(N)nc(N(C)C)n2)C(C)C)cc1` (stereo unspecified): the minimum inhibitory concentration in experiment [1] and in experiment [2] was > 50 µM in each case.

Consider `COc1ccc(-c2nc(-c3cccc(NC(=O)Cc4ccc(F)cc4)c3)no2)cc1OC`, for which the minimum inhibitory concentration in experiment [1] and in experiment [2] was > 50 µM throughout.

Take `Nc1ncc(Br)cc1-c1nc2cc(Cl)cnc2[nH]1`: the minimum inhibitory concentration in experiment [1] and in experiment [2] was > 50 µM each time.

With `COc1cc(Br)cc2cc(C(=O)Nc3cccc(C(F)(F)F)c3)c(=O)oc12`, the minimum inhibitory concentration in experiment [1] and in experiment [2] was > 50 µM each time.

On to `Clc1cccc(C(c2ccc(CN3CCNCC3)cc2)n2ccnc2)c1` (stereo unspecified), for which the minimum inhibitory concentration in experiment [1] and in experiment [2] was > 50 µM throughout.

`O=C(NCCN1CCCC1)c1cc(NCCN2CCOCC2)nc2ccc(Cl)cc12`: the minimum inhibitory concentration in experiment [1] and in experiment [2] was 50 µM (≈ 21.6 µg/mL) throughout.

With `Nc1nc2cc(-c3cncc(Oc4ccc(F)cc4)c3)ccc2[nH]1`, the minimum inhibitory concentration in experiment [1] and in experiment [2] was 50 µM (≈ 16 µg/mL) each time.

Regarding `O=[N+]([O-])c1cn2c(n1)OC[C@@H](OCc1ccc(OC(F)(F)F)cc1)C2`, the minimum inhibitory concentration in experiment [1] and in experiment [2] was > 50 µM in each case.

In the case of `CC1=Nc2ccc(Cl)cc2C(O)(c2ccc(C)cc2)N1CCN1CCCCC1` (stereo unspecified), the minimum inhibitory concentration in experiment [1] and in experiment [2] was > 50 µM throughout.

In the case of `O=C(Nc1cccc(-c2ccc(NCCCN3CCCC3)nc2)c1)c1ccccc1`, the minimum inhibitory concentration in experiment [1] and in experiment [2] was > 50 µM each time.

For `O=C(Nc1ccnc(-c2cccnc2)n1)c1cc(C(F)(F)F)cc(C(F)(F)F)c1`, the minimum inhibitory concentration in experiment [1] and in experiment [2] was > 50 µM each time.

Regarding `CC(C)(CN)c1nc(-c2ccc(Cl)c(O)c2)c(-c2ccnc(N)n2)[nH]1`, the minimum inhibitory concentration in experiment [1] and in experiment [2] was > 50 µM in each case.

Regarding `CCC(=O)Nc1ccccc1C(=O)Nc1ccccn1`, the minimum inhibitory concentration in experiment [1] and in experiment [2] was > 50 µM each time.

On to `Nc1nc(N)c2c3c(sc2n1)CN(Cc1ccccc1)CC3`, for which the minimum inhibitory concentration in experiment [1] and in experiment [2] was > 50 µM in each case.

`CCCCOC(=O)Nc1cc2nc(C3CCCCC3)[nH]c2cc1N1CCCC1`: the minimum inhibitory concentration in experiment [1] and in experiment [2] was > 50 µM throughout.

As for `CC(=O)NC[C@@H]1CN(c2ccc(N3CCOCC3)c(F)c2)C(=O)O1`, the values for the minimum inhibitory concentration in experiment [1] and in experiment [2] were 6.25 µM (≈ 2.11 µg/mL) and 3.12 µM (≈ 1.05 µg/mL), respectively.
